Results taken from US20200306283A1, “CANCER TREATMENT AND METASTASIS INHIBITION USING AN ANTI-CANCER STEM CELL AGENT IN COMBINATION WITH A NEU1 SIALIDASE INHIBITOR OR A CYTOKINE INHIBITOR AFTER PRIMARY CANCER TREATMENT” (priority 2016, published 2020).

Tests used:
[1] = test system: xenograft tumors of PANC-1 cells; experiment: Fluorescence immunohistochemistry of E-cadherin and N-cadherin in PANC-1 xenograft tumors (FIG. 24); format: in vivo; conditions: immunocompromised mice
Protocol: Paraffin-embedded tumor sections (5 μm) on glass slides were processed from immunohistochemistry using conjugated E-cadherin and N-cadherin antibodies (see A of FIG. 24). Background control (CTL) sections were prepared without the antibodies. Images are representative of at least five fields of view from two tumor sections. (B). Each bar represents the mean (±standard error of the mean) corrected density of tumor staining. Abbrev.: C=cohort; M=mouse number. E- and N-cadherin expression in paraffin-embedded xenograft tumors of PANC-1 cells in immunocompromised mice using conjugated E- and N-cadherin antibodies was detected by fluorescence immunohistochemistry. […] Images are representative of at least five fields of view from two tumor sections, and each bar represents the mean±standard error of the mean corrected density of tumor staining.

[2] = test system: enriched circulating tumour cells from a patient with metastatic prostate cancer; experiment: Cell proliferation / cancer stem cell markers (EpCAM, CD44, CD133) in enriched CTCs cultured with cytokine cocktails; format: cell-based, human
Protocol: (§1) Cells were fixed in 1% Paraformaldehyde for 15 minutes at room temperature and run on Flowsight using 2 lasers (488 nm at 60 mW and 405 nm at 30 mW). For cell lines, 100,000 events were collected whilst for enriched CTCs all events were collected until the sample finished.
(§2) Flow cytometry data was analysed using IDEAS software. Double events, out of focus events, CD45PercPCy5.5 positive cells (in case of enriched CTCs), dead cells and non-nucleated events were eliminated from the fluorescence analysis of the cell population. FIG. 2 depicts scatterplots of flow cytometry experiments showing the enriched CTCs stained with an antibody containing CD44 after treatment with various cytokines and cytokine cocktails.
In order to determine if selected cytokines influence cell proliferation of circulating tumour cells (CTCs), whole blood was collected from a patient with metastatic prostate cancer. Circulating tumour cells were enriched from whole blood using RosetteSep CTC Enrichment cocktail. Briefly, samples of whole blood were incubated with RosetteSep (anti CD 56 for 20 minutes at room temperature). Phosphate buffered saline containing 2% Fetal Bovine Serum was added to the samples and layered on a Ficoll Paque gradient. After centrifugation, the supernatant which contained CTCs was washed twice with PBS containing 2% FBS. Equal volumes of the cell suspension were seeded into a 24-well ultra-low attachment polystyrene plate. […] FIG. 3 depicts scatterplots of flow cytometry experiments enriched CTCs stained with an antibody containing CD133 after treatment with various cytokines and cytokine cocktails.
FIG. 6 depicts cell proliferation of subpopulations in cultured CTCs after exposure to various cytokines and cytokine cocktails. Cells were stained using an antibody containing CD44 PE.
Cells were stained using an antibody containing CD133 PE.

[3] = test system: enriched circulating tumour cells from a patient with colorectal cancer; experiment: Cultured enriched CTCs from a colorectal cancer patient treated with IL-6, IL-8 or PDGFBB (EpCAM, CD133, Lgr5 flow cytometry); format: cell-based, human
Excerpt: A blood sample was collected from a patient with colorectal cancer six days after surgery. Blood samples were enriched for CTCs using RosetteSep CD 56 kit according to standard protocol. Prior to cell culture, cells were stained with the following antibody cocktail: EpCAM A488, CD133PE, CD 45 PerCP Cy5.5, and Lgr5-PE-Vio770. Cells were either cultured in low attachment well plates without cytokines (control cells) or with three different cytokines (IL-6, IL-8 or PDGFBB).
Flow cytometry data was analysed using IDEAS software. Double events, out of focus events, CD45PercPCy5.5 positive cells, dead cells and non-nucleated events were eliminated from the fluorescence analysis of the cell population. Hoescht 33258 dye was used to stain nuclei of enriched CTCs. All experiments were stained with a fixable live/dead dye eFluor 506 to exclude dead cells.

[4] = test system: SW-620 cells; experiment: SW-620 cells treated with cytokines with or without Irinotecan, flow cytometry for stem cell markers and apoptosis; format: cell-based, human; conditions: SW-620, cytokines 24 hours then 2 μM Irinotecan 36 hours; zero in non-treated control cells
Protocol: SW-620 cells, a human colorectal adenocarcinoma cell line, were treated with cytokines alone or in combination including IL-6, TGF-beta, HGF, PGE-2, IL-6+PGE-2 and TGF-beta+HGF for 24 hours and compared to untreated SW-620 cells as control. Some treated and untreated SW-620 cells were then exposed to 2 μM Irinotecan for 36 hours at which point cells were harvested for flow cytometry to assess for stem cell markers and markers of apoptosis. The percentage of CD44+CD133− cells following treatment with various cytokine and cytokine cocktails is depicted in FIG. 10. Compared to non-cytokine treated cells, combinations with IL-6+PGE-2, and TGF-beta+HGF increased the number and percentage of cells that were CD44+CD133− as shown in FIG. 10 (stem cells). FIG. 11 depicts the percentage of CD44+CD133− cells following treatment with various cytokines and Irinotecan. […]
Additionally, the percentage of CD44-CD133+ cells following treatment with various cytokines and cytokines cocktails was determined as depicted in FIG. 16. The percentage of CD44-CD133+ cells following treatment with various cytokines and Irinotecan was measured as depicted in FIG. 17. The percentage of CD44-CD133+ cells following treatment with various cytokine cocktails and Irinotecan was measured as depicted in FIG. 18. […]

[5] = test system: HCT-15 cells; experiment: Cell subpopulations (CD44/CD24) in HCT-15 cell line after cytokine exposure, imaging flow cytometry; format: cell-based; design: unit not given here; conditions: HCT-15 cells after exposure to cytokines singly or in pairs
Protocol: Two authenticated colorectal carcinoma cell lines, HCT-15 and SW-620, were used to test the effect of different cytokine and cytokine cocktails, including IL-6, HGF, PGE-2, TGF-beta and MMP-9 alone or in a cocktail, on cell proliferation, EMT and cancer stem cell populations.
In order to evaluate stem cell populations, cells were synchronized by serum starvation for 72 hours before seeding in 24-well ultra low attachment plates at a density of 200,000 cells/well. Cells were then detached using trypsin EDTA and washed twice with PBS (without Calcium or Magnesium). A cell proliferation dye, eFluor 450 was used to label cells. Cells were grown with DMEM with high glucose and 2 mM Gluatmine without FBS in the presence of selected cytokines and or cytokine cocktails over a period of 72 hrs.
Cells that were grown in 5% serum were stained with the following antibody cocktails: CD24FITC, CD44PE and CD24FITC, CD133PE. Cells were also stained with a fixable live/dead efluor dye 506 to exclude dead cells. In parallel, cells were grown in the presence of 5% serum to evaluate CSC markers.
as §1
as §2, with “cocktails. Hoescht 33258 dye was used to stain nuclei in the case of the HCT-15 cell line and enriched CTCs. All experiments were stained with a fixable live/dead dye eFluor 506 to exclude dead cells.” for “cocktails.”
To evaluate which cocktail combinations were most likely involved in cell proliferation of presumed quiescent stem cells or de-differentiated stem cell-like cells, four cytokines, IL-6, HGF, PGE-2 and TGF-beta were added singly or in pairs to HCT-15 cells. Results of combinations that influenced cell proliferation of HCT-15 cells in culture are presented. […] FIG. 4 depicts cell proliferation of subpopulations in the HCT-15 cell line after exposure to various cytokines and cytokine cocktails.

[6] = cell culture period 8 days, CD44PE antibody cocktail
[7] = cultured CTCs from colorectal cancer patient

Nc1ccn([C@@H]2O[C@H](CO)[C@@H](O)C2(F)F)c(=O)n1 [Gem, gemcitabine]
N-cadherin expression in tumor tissue [1]: remained consistent

IL6: cytokine Interleukin 6 added to cancer cells in culture
percentage of cells positive for both EpCAM and CD44 ([2]; 8 days culture, CD44PE antibody cocktail): highest | EpCAM-CD44+ cell sub-population ([2]; 8 days culture, no serum, CD44PE antibody cocktail): 6.14 % gated | EpCAM + CD133+ cell subpopulation ([2]; CD133 PE antibody cocktail): 23.5 percentages of gated subpopulations | EpCAM + CD133− cell subpopulation ([2]; CD133 PE antibody cocktail): 0 percentages of gated subpopulations | EpCAM − CD133+ cell subpopulation ([2]; CD133 PE antibody cocktail): 74.7 percentages of gated subpopulations | EpCAM − CD133− cell subpopulation ([2]; CD133 PE antibody cocktail): 1.46 percentages of gated subpopulations | EpCAM + CD44+ cell subpopulation [2, 6]: 35.6 percentage of gated cells | EpCAM + CD44− cell subpopulation [2, 6]: 2.66 percentage of gated cells | EpCAM − CD44+ cell subpopulation [2, 6]: 6.14 percentage of gated cells | EpCAM − CD44− cell subpopulation [2, 6]: 55 percentage of gated cells | EpCAM + CD133+ cell subpopulation [3, 7]: 0.1 percentages of gated subpopulations | EpCAM + CD133− cell subpopulation [3, 7]: 2.98 percentages of gated subpopulations | EpCAM − CD133+ cell subpopulation [3, 7]: 0.12 percentages of gated subpopulations | EpCAM − CD133− cell subpopulation [3, 7]: 90.5 percentages of gated subpopulations | EpCAM+CD133− subpopulation (cancer stem cell fraction) ([3]; cultured CTCs, colorectal cancer patient, 0.05% before culture, 2% control, listed as IL-6): significantly increased | percentage of CD44+CD133− stem cells [4]: enriched | CD24 + CD44− cell subpopulation [5]: 49.1 | CD44 + CD24+ cell subpopulation [5]: 5.63 | CD44 + CD24− cell subpopulation [5]: 1.35 | CD44 − CD24− cell subpopulation [5]: 43.2
